Data reported in patent US20220280541A1, “METHOD FOR IDENTIFYING CARBOHYDRATE DRUG-SENSITIVE PATIENT IN PATIENTS HAVING ALZHEIMER'S DISEASE” (SHANGHAI GREEN VALLEY PHARMACEUTICAL CO., LTD., priority 2019, published 2022).
Entries after “also recorded” stand apart in the source; their conditions may differ.

Columns and labels:
[1] = test system: Th1 cells; test: Intraperitoneal injection of phenylalanine and isoleucine, blood Th1 cells; type: in vivo, mouse; conditions: WT (C57) mice, intraperitoneal injection 50 mg/kg for 4 days
Experimental: Animals. Tg mice and co-housed WT mice (corresponding WT mice generated by mating Tg mice and C57 mice) were housed in the same cage after birth. WT mice (C57) were housed in separate cages to avoid cross-transfer of microbiota. All mice were kept in a 23° C. room with a 12-hour (h) light-dark cycle. Mice were randomly assigned to different groups before treatment. For time course analysis of Tg mice, male and female Tg mice were sacrificed at 2, 3, 5, 7 and 9 months of age. The mouse brain was collected and stained for immune cell analysis and cytokine analysis. Before the mice were sacrificed, feces were collected for gut microbiota analysis. For OM1 treatment, at the age of 6.5 months, based on 450 mg b.i.d. (twice a day) in the phase III trial, Tg mice were treated with 100 mg/kg OM1 by oral administration once a day for one month. Behavioral tests were performed to monitor cognitive activity after the last treatment. […] All mouse movements that occur in PhenoTyper (HomeCage) are recorded by a computerized tracking system, which calculates the time and number of entrances required to reach 80% of the performance standard (Noldus, Ethovision). […]
Flow cytometry sample preparation and analysis. […] All samples were counted and adjusted to a density of 2-3×10^6/100 μL, labeled with a Live/Dead kit for 30 min, and then centrifuged at 500×g for 3 min at 4° C. […]

[2] = test system: naive CD4^+ T cells; test: In vitro differentiation and proliferation induced by phenylalanine and isoleucine; type: cell-based, mouse; conditions: amino acid added directly to naive CD4^+ T cell culture
Experimental: In Vitro differentiation and proliferation induced by phenylalanine and isoleucine. Naive CD4^+ T cells were separated from the splenocytes of 8-month-old C57BL/6 female mice using the Naive CD4^+ T cell Isolation Kit (Stem Cell, #19765), and the cells were stained with CellTrace (Thermo Fisher, #C34557). A total of 1×10^5 cells/well in 0.2 mL of RPMI-1640 medium were plated in 96-well plates, and the culture medium was supplemented with cytokines or blocking antibodies. Th0: 10 ng/mL mIL-2; Th1:10 ng/mL mIL-2, 5000 ng/mL 11B11. Phenylalanine (final concentration, 2 mmol/L), isoleucine (final concentration, 2 mmol/L) and OM1 (final concentration, 100 μg/mL) were added into the indicated wells, respectively. After incubation at 37° C. in 5% CO2 for 5 days, cells were acquired on a BD Fortessa cytometer, and data were analyzed using FlowJo software.

[3] = molecular target: LAT1 (Homo sapiens, UniProt Q01650); conditions: cited from earlier work
Chain of LAT1 (Q01650 whole entry, species assumed): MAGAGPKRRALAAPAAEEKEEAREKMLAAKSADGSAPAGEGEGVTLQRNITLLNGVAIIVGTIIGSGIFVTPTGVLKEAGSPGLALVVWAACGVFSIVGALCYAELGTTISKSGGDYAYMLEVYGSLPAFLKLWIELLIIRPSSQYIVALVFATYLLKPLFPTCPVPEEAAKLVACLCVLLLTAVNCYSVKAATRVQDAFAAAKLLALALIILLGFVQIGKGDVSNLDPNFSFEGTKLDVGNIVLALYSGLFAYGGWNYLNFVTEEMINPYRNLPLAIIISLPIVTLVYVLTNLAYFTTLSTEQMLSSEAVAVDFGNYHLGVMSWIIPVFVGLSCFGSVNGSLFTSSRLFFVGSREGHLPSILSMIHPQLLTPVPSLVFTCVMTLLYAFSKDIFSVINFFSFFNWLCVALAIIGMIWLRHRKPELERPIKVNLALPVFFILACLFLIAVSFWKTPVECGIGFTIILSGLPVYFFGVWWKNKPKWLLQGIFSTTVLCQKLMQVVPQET
Chain of LAT1 (P08195 102-630 partner, species assumed): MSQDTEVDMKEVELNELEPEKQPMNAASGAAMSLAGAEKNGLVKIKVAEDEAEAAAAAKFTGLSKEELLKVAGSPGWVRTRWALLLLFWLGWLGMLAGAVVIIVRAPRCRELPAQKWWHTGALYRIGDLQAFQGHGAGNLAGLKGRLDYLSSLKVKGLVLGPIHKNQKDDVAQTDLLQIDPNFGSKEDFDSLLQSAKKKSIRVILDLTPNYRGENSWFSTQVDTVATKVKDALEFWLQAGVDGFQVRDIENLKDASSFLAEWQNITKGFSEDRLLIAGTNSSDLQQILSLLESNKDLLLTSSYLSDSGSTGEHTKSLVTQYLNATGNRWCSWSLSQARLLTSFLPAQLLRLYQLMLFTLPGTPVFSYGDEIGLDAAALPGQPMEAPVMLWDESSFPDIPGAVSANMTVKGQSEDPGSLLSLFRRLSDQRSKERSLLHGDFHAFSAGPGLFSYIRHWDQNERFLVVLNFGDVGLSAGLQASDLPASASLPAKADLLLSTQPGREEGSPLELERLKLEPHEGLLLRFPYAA

[4] = test system: Th1 cells; test: Flow cytometry of brain Th1 cells in 5XFAD (Tg) mice; type: in vivo, mouse; conditions: 6-month-old 5XFAD mice, 50 mg/kg intraperitoneal daily for one month, versus vehicle
Experimental: Animals. Tg mice and co-housed WT mice (corresponding WT mice generated by mating Tg mice and C57 mice) were housed in the same cage after birth. […] All mice were kept in a 23° C. room with a 12-hour (h) light-dark cycle. Mice were randomly assigned to different groups before treatment. For time course analysis of Tg mice, male and female Tg mice were sacrificed at 2, 3, 5, 7 and 9 months of age. The mouse brain was collected and stained for immune cell analysis and cytokine analysis. […] For OM1 treatment, at the age of 6.5 months, based on 450 mg b.i.d. (twice a day) in the phase III trial, Tg mice were treated with 100 mg/kg OM1 by oral administration once a day for one month. […] The brains and feces of the mice were then used for different analyses.
Flow cytometry sample preparation and analysis. Mice were anesthetized, blood samples were collected into EDTA-containing tubes, and red blood cells were removed using 1×red blood lysis buffer. Before tissue collection, the brains were perfused with ice-cold PBS to avoid sampling the circulating blood immune cells, and the brains were removed, chopped into pieces and dissected according to the introduction of the Adult Brain Dissociation Kit (Miltenyi, Cat No. 130-107-677) using the gentleMACS dissociator (Miltenyi Biotec). The brain homogenate was filtered through a 70-μm cell strainer and centrifuged at 300×g for 5 min at 4° C. The cell pellet was resuspended in cold PBS buffer and centrifuged again at 300×g for 5 min at 4° C. All samples were counted and adjusted to a density of 2-3×10^6/100 μL, labeled with a Live/Dead kit for 30 min, and then centrifuged at 500×g for 3 min at 4° C. The cells were resuspended in 100 μL PBS buffer, blocked with anti-CD16/32 (Biolegend, Cat No. 101320) for 10 min, and incubated with the antibody according to the manufacturers' protocols at 4° C. for 30 min. […]

[5] = molecular target: T1, SLC7A5 (Mus musculus, UniProt Q9Z127); test: Uptake of ^13C-labelled phenylalanine by naive CD4^+ T cells; type: cell-based; conditions: 0.5 h incubation
T1 construct: endogenous in cells; host or cells: naive CD4+ T cells from splenocytes of C57BL/6 mice (Th0 and IL-12-induced Th1)
T1 sequence (Q9Z127 whole entry): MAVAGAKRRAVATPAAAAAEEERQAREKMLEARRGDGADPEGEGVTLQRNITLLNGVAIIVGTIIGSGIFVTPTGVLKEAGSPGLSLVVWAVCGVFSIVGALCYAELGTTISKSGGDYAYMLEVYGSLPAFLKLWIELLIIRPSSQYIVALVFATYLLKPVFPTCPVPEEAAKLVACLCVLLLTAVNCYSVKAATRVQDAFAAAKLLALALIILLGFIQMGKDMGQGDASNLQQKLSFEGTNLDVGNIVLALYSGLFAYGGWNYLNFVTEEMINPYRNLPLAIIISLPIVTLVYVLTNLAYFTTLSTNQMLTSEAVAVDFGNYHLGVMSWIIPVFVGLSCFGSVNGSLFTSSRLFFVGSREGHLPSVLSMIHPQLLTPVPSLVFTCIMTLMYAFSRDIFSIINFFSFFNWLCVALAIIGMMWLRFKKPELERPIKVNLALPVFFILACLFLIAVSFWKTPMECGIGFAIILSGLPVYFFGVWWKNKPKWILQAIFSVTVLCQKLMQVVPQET
T1 sequence (P10852 whole entry partner): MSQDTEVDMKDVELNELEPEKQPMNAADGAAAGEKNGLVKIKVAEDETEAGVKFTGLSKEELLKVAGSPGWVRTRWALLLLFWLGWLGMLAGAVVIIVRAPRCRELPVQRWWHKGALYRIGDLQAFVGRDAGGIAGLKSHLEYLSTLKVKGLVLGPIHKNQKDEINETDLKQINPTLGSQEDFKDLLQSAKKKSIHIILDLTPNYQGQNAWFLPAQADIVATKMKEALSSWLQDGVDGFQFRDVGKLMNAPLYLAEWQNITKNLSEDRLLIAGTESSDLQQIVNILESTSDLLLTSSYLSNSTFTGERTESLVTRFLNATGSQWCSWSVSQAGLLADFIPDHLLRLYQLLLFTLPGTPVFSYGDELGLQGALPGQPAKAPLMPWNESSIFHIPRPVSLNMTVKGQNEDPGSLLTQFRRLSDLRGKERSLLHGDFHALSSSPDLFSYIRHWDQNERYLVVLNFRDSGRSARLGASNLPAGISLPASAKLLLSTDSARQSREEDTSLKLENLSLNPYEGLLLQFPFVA
Experimental: Uptake of phenylalanine. Naive CD4^+ T cells were separated from the splenocytes of 8-month-old C57BL/6 female mice using the Naive CD4^+ T cell Isolation Kit (Stem Cell, Cat No. 19765) and were induced to Th1 differentiation by 20 ng/mL IL-12. After 3 days, a total of 5×10^5 cells/well Th1 cells and Th0 cells in 0.5 mL of RPMI-1640 medium were plated into 48-well plates. ^13C-labelled phenylalanine and 5 mM amino transporter inhibitor BCH were added into indicated wells. After 0.5 h, cells were collected and washed twice with ice-cold D-PBS. 50 μL deionized water was added and cells were lysed through freezing and thawing twice at −80° C. The cell lysate was centrifuged at 12000×g for 10 min and ^13C-labelled phenylalanine in the supernatant was analyzed by Mass spectrometry.

## CC[C@H](C)[C@H](N)C(=O)O [isoleucine]
[1]
  Th1 cell count in the blood: increased significantly
[2]
  Th0 cell differentiation into Th1 cells: increased
  Th1 cell proliferation: increased

## N[C@@H](Cc1ccccc1)C(=O)O [phenylalanine]
[1]
  Th1 cell count in the blood: increased significantly
[2]
  Th0 cell differentiation into Th1 cells: increased
  Th1 cell proliferation: increased

## Nc1cc(COc2c(Cl)cc(C[C@H](N)C(=O)O)cc2Cl)c2oc(-c3ccccc3)nc2c1 [JPH203]
[3]
  LAT1 inhibition, selectivity: selectively inhibits LAT1
[4]; 50 mg/kg
  proportion of pro-inflammatory Th1 cells in the mouse brain: effectively inhibits; also recorded: significantly downregulated
[4]; listed as JPH 203, 50 mg/kg
  proportion of pro-inflammatory Th1 cells in the mouse brain: significantly reduces
[5]
  uptake of ^13C-labelled phenylalanine by CD4^+ T cells: blocked
